Target: T1, human P450 11A1 (Homo sapiens, UniProt P05108)
T1 sequence (P05108 41-521 limits assumed): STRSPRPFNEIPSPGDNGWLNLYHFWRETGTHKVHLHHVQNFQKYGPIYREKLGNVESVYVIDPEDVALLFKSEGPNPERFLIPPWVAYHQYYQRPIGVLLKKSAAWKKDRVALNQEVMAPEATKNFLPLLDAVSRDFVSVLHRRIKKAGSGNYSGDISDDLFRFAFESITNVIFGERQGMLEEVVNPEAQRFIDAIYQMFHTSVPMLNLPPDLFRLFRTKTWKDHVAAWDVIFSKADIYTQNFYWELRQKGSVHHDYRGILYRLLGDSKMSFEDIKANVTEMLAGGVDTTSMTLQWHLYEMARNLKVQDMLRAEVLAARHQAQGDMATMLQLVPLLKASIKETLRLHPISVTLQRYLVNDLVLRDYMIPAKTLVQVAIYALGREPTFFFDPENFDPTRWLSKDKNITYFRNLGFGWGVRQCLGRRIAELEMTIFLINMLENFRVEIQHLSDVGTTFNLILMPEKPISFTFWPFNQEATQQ
T1 sequence (P00257 59-186 partner): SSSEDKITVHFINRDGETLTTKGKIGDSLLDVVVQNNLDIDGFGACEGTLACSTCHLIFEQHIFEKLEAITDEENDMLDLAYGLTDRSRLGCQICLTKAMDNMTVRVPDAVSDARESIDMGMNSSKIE
Assay: Single-turnover kinetics of P450 11A1 with [1,2-3H]-cholesterol (radio-HPLC)
Format: biochemical
Set-up: M A S T R S P R P F N E I P S P G D N; Met-Ala (N-terminal start residues in place of the transit peptide and Ile40) (N); made in house; host or cells: E. coli (P450 11A1 in C41(DE3); Adx and AdR in E. coli)
Procedure: In this reaction, a 5 μM complex of P450 11A1 and 4.5 μM cholesterol was assembled, and Adx was added at either equimolar (low, 5 μM) or 10-fold excess (high, 50 μM) concentrations (along with 10 μM AdR). The complex was diluted 2-fold (with 5 mM NADPH) in the apparatus to initiate the reaction, which was quenched at variable times. The products of the reaction were extracted and quantified by radio-HPLC. […] (The analysis of kinetic modeling is described below.)
P450 11A1 (5 μM) was reconstituted with its redox partners AdR (10 μM) and Adx (5 μM) on ice (10 min) prior to dilution in potassium Hepes buffer (50 mM, pH 7.4) and H2O and the addition of ^3H-cholesterol substrate (4.5 μM, 0.5 Ci/mmol). The concentration of substrate was deliberately kept slightly below the enzyme concentration to ensure that single-turnover conditions were strictly followed. The mixture (0.75 ml) was preincubated (37 °C, 5 min) in a shaking water bath prior to initiation with an equal volume of NADPH solution (5 mM, from a 10 mM stock in 50 mM potassium Hepes buffer, pH 7.4), thus reducing the concentrations of all enzymes and substrate to one-half their starting concentrations. After completing the desired incubation time, an aliquot (200 μl) was removed from the incubation and added to vials containing aqueous HCl (800 μl, 1 M). The quenched reactions were mixed with a vortex device and placed on ice. When the time course was complete, the quenched reactions were mixed with CH2Cl2 (5 ml) to extract reaction products and were centrifuged (10^3g, 5 min, 23 °C) to separate layers, and the organic (bottom) layers were transferred (4 ml) to fresh glass vials. The extraction process was repeated and the two extracts (2 × 4 ml) from each sample were combined to maximize product recovery. Samples (8 ml) were brought to dryness under a stream of nitrogen, and the dried residues were dissolved in CH3OH (75 μl) and transferred to autosampler vials for analysis by radio-HPLC.
Enzyme and NADPH solutions were prepared as described for the benchtop experiments (above) but with the modification that the concentration of Adx was increased to 50 μM (from 5 μM). […] The rapid quench-flow is a rapid mixing device that combines equal volumes (∼19 μl) of two solutions (P450 and NADPH, held at 37 °C) into a central internal chamber to initiate a reaction. After the preset reaction time is completed, the mixture (∼38 μl) is then rapidly combined with a quench solution (1 M HCl, ∼160 μl), expelled from the apparatus, and collected in vials. Utilizing this experimental design, the reaction of enzyme-substrate complex (P450 11A1-Adx-AdR and ^3H-cholesterol) was initiated with NADPH on a variable timescale (0–90 s), pooling five replicates of each time point to maximize sensitivity. The products of each quenched reaction (∼1 ml) were extracted with two volumes (5 ml) of CH2Cl2, brought to dryness, and dissolved in CH3OH as described for the benchtop experiments.
Samples (held at 4 °C) were injected (50 μl) using a Agilent 1100 Series HPLC system on a NovaPak (Waters) octadecylsilane (C18) 3.9 mm × 100 mm (4 μm) column (held at 25 °C) with a flow rate of 1.0 ml min^−1 using a gradient mobile phase of (A) H2O and (B) CH3CN as follows (all in % B, v/v): 0 min, 70%; 10 min, 100%; 35.5 min, 100%; 37 min, 30%; and 40 min, 70%).

[1] = 10-fold excess (high) Adx, time 0 s
[2] = 10-fold excess (high) Adx, time 0.25 s
[3] = 10-fold excess (high) Adx, time 0.5 s
[4] = 10-fold excess (high) Adx, time 0.75 s
[5] = 10-fold excess (high) Adx, time 1 s
[6] = 10-fold excess (high) Adx, time 2 s
[7] = 10-fold excess (high) Adx, time 2.5 s
[8] = 10-fold excess (high) Adx, time 3.5 s
[9] = 10-fold excess (high) Adx, time 5 s
[10] = 10-fold excess (high) Adx, time 6 s
[11] = 10-fold excess (high) Adx, time 7.5 s
[12] = 10-fold excess (high) Adx, time 10 s
[13] = 10-fold excess (high) Adx, time 15 s
[14] = 10-fold excess (high) Adx, time 20 s
[15] = 10-fold excess (high) Adx, time 30 s
[16] = 10-fold excess (high) Adx, time 45 s
[17] = 10-fold excess (high) Adx, time 60 s
[18] = 10-fold excess (high) Adx, time 90 s
[19] = second table, headed 10-fold excess (high) Adx, time 0 s
[20] = second table, headed 10-fold excess (high) Adx, time 10 s
[21] = second table, headed 10-fold excess (high) Adx, time 25 s
[22] = second table, headed 10-fold excess (high) Adx, time 50 s
[23] = second table, headed 10-fold excess (high) Adx, time 75 s
[24] = second table, headed 10-fold excess (high) Adx, time 100 s
[25] = second table, headed 10-fold excess (high) Adx, time 200 s
[26] = second table, headed 10-fold excess (high) Adx, time 500 s

SMILES | concentration in single-turnover reaction [1] [µM] | concentration in single-turnover reaction [2] [µM] | concentration in single-turnover reaction [3] [µM] | concentration in single-turnover reaction [4] [µM] | concentration in single-turnover reaction [5] [µM] | concentration in single-turnover reaction [6] [µM] | concentration in single-turnover reaction [7] [µM] | concentration in single-turnover reaction [8] [µM] | concentration in single-turnover reaction [9] [µM] | concentration in single-turnover reaction [10] [µM] | concentration in single-turnover reaction [11] [µM] | concentration in single-turnover reaction [12] [µM] | concentration in single-turnover reaction [13] [µM] | concentration in single-turnover reaction [14] [µM] | concentration in single-turnover reaction [15] [µM] | concentration in single-turnover reaction [16] [µM] | concentration in single-turnover reaction [17] [µM] | concentration in single-turnover reaction [18] [µM] | concentration in single-turnover reaction [19] [µM] | concentration in single-turnover reaction [20] [µM] | further results
CC(C)CC[C@@H](O)[C@](C)(O)[C@H]1CC[C@H]2[C@@H]3CC=C4C[C@@H](O)CC[C@]4(C)[C@H]3CC[C@]12C [20R,22R-(OH)2 Chol, (20R,22R)-Cholest-5-ene-3β,20,22-triol] | 0 | 0 | 0.1366 | 0.2407 | 0.2278 | 0.1672 | 0.2051 | 0.184 | 0.1911 | 0.1865 | 0.2095 | 0.1817 | 0.1522 | 0.1106 | 0.03422 | 0 | 0 | 0 | 0 | 0.239 | concentration in single-turnover reaction [21]: 0.1619 µM; concentration in single-turnover reaction [22]: 0.07194 µM; concentration in single-turnover reaction [23]: 0.04787 µM; concentration in single-turnover reaction [24]: 0 µM; concentration in single-turnover reaction [25]: 0 µM; concentration in single-turnover reaction [26]: 0 µM
CC(=O)[C@H]1CC[C@H]2[C@@H]3CC=C4C[C@@H](O)CC[C@]4(C)[C@H]3CC[C@]12C [Pregnenolone] | 0 | 0 | 0 | 0.1368 | 0.3142 | 0.6865 | 0.7647 | 1.037 | 1.311 | 1.385 | 1.618 | 2.345 | 2.973 | 3.346 | 3.763 | 4.002 | 4.116 | 4.189 | 0 | 1.241 | concentration in single-turnover reaction [21]: 2.512 µM; concentration in single-turnover reaction [22]: 3.582 µM; concentration in single-turnover reaction [23]: 4.057 µM; concentration in single-turnover reaction [24]: 4.341 µM; concentration in single-turnover reaction [25]: 4.5 µM; concentration in single-turnover reaction [26]: 4.5 µM
CC(C)CC[C@@H](O)[C@@H](C)[C@H]1CC[C@H]2[C@@H]3CC=C4C[C@@H](O)CC[C@]4(C)[C@H]3CC[C@]12C [22R-OH Chol, 22R-hydroxycholesterol] | 0 | 0.1665 | 0.3411 | 0.2577 | 0.2098 | 0.2144 | 0.1649 | 0.1652 | 0.1576 | 0.1666 | 0.1648 | 0.1591 | 0.1351 | 0.101 | 0.09739 | 0.06928 | 0.06822 | 0.05063 | 0 | 0.2262 | concentration in single-turnover reaction [21]: 0.1763 µM; concentration in single-turnover reaction [22]: 0.1172 µM; concentration in single-turnover reaction [23]: 0.06255 µM; concentration in single-turnover reaction [24]: 0 µM; concentration in single-turnover reaction [25]: 0 µM; concentration in single-turnover reaction [26]: 0 µM

From publication PMC10716780, “The multistep oxidation of cholesterol to pregnenolone by human cytochrome P450 11A1 is highly processive” (The Journal of Biological Chemistry, 2023)
